Molecular target: T1, CBM-GST (CBM of OsBC1L6) (Oryza sativa, UniProt Q6Z4G8)
T1 construct: gene BC1L6; wheat germ cell-free expression; 48 kDa by SDS-PAGE
T1 sequence (Q6Z4G8 31-191): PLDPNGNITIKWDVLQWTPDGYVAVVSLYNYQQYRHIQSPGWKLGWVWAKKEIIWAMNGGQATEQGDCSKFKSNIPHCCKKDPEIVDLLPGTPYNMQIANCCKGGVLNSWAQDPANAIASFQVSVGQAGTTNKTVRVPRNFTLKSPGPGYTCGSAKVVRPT
Assay: surface plasmon resonance (Biacore T200)
Type: binding
Conditions: CBM-GST captured by anti-GST on CM5 chip; HBS-EP pH 7.4, 25°C

Kd [µM] | SMILES
852 | OC[C@H]1O[C@@H](O[C@H]2[C@H](O)[C@@H](O)[C@H](O[C@H]3[C@H](O)[C@@H](O)[C@H](O[C@H]4[C@H](O)[C@@H](O)[C@H](O[C@H]5[C@H](O)[C@@H](O)[C@H](O[C@H]6[C@H](O)[C@@H](O)C(O)O[C@@H]6CO)O[C@@H]5CO)O[C@@H]4CO)O[C@@H]3CO)O[C@@H]2CO)[C@H](O)[C@@H](O)[C@@H]1O (some centres unmarked) [GGGGGG, cellohexaose]
760 | OC1OC[C@@H](O[C@@H]2OC[C@@H](O[C@@H]3OC[C@@H](O[C@@H]4OC[C@@H](O[C@@H]5OC[C@@H](O[C@@H]6OC[C@@H](O)[C@H](O)[C@H]6O)[C@H](O)[C@H]5O)[C@H](O)[C@H]4O)[C@H](O)[C@H]3O)[C@H](O)[C@H]2O)[C@H](O)[C@H]1O (some centres unmarked) [XXXXXX, xylohexaose]

Source: publication PMC6532911, “Oryza sativa Brittle Culm 1-like 6 modulates β-glucan levels in the endosperm cell wall” (PLoS ONE, 2019)
